Source: PubChem BioAssay (NCI)
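Assay format: 96-well plates, 48-hour exposure. TGI: total growth inhibition.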

Key:
Experiment in all cases: NCI anticancer screen, dose series, 48 h
[1] = system: U251 CNS
[2] = system: NCI-H226 lung
[3] = system: RXF 393 renal
[4] = system: ACHN renal
[5] = system: NCI-H460 lung
[6] = system: SK-MEL-28 melanoma
[7] = system: SNB-19 CNS
[8] = system: SK-OV-3 ovarian

SMILES	TGI [1] [µM]	TGI [2] [µM]	TGI [3] [µM]	TGI [4] [µM]	TGI [5] [µM]	TGI [6] [µM]	TGI [7] [µM]	TGI [8] [µM]
CN(CCS(=O)(=O)N1C(=O)C2CCCN2C(=O)[C@@H]1Cc1ccccc1)C(=O)OCc1ccccc1 (some centres not stated)	> 100	> 100	> 100	73.4	> 100	> 100	> 100	> 100
O=C1[C@H]2ON(c3ccccc3)C(c3ccc([N+](=O)[O-])cc3)[C@H]2C(=O)N1c1ccc(Cc2ccc(N3C(=O)[C@@H]4ON(c5ccccc5)C(c5ccc([N+](=O)[O-])cc5)[C@@H]4C3=O)cc2)cc1 (some centres not stated)	> 100	> 100	> 100	> 100	> 100	> 100	> 100	> 100
CC1=N/C(=C/c2ccc3c(c2)OCO3)C(=O)O1	> 100		> 100	> 100		> 100	> 100	> 100
CCC[C@H]1O[C@@H]2CC(=O)O[C@@H]2C2=C1C(=O)C=CC2=O	> 53.7	18.4	30.4	25.7	> 100	31.5	> 100	> 56.3
CC(C)(C)C1=CC(=C(P(=O)(O)O)P(=O)(O)O)C=C(C(C)(C)C)C1=O		> 50		> 50	> 50	> 50	> 50	> 50
C=C[C@@H](C)[C@]1(C(=O)OC)CCCC12OCCO2	> 100	> 100	> 100	> 100	> 100	> 100	> 100	> 100
COc1ccc(Cc2c3cc(O)c(=O)cc-3ccn2C)cc1	> 100	83.3	73.7	> 100	> 100	> 92.9	> 100	> 100
C/C(=N\N=C(N)N)C(CN1CCCCC1)C(c1ccccc1)c1c(O)c2ccccc2oc1=O (configuration not stated)		> 100	> 100	> 100		> 100	> 100	> 100
Cc1c(C)c2ccc3oc4ccccc4c3c2oc1=O	> 100	> 100	> 100	> 100	> 100	> 100	> 100	> 100
CCOC(OC(C)=O)[C@@H]1C=C[C@H](C)N(c2ccc([N+](=O)[O-])cc2)O1 (some centres not stated)	9	14	22.4	13	34.2	9.62	37.4	35.3
CSc1ccc2c(cc1=O)[C@@H](NC(=O)c1cccc([N+](=O)[O-])c1)CCc1cc(O)c(O)c(O)c1-2	51.5	57.9	> 100	> 100	> 100	> 100	> 100	> 100
CC(C)N(C(=O)C12C3C4C5(C#N)C3C1(C#N)C5C42C#N)C(C)C (configuration not stated)	> 100	> 100		> 100	> 100	> 100	> 100	> 100
O=C(CCC(=O)Nc1ccc(Cl)c(Cl)c1)Cc1nc2ccccc2o1	> 100	> 100	> 100	> 100	> 100	> 100	> 100	> 100
COc1cc2cc(OC(C)=O)c3cc4c(cc3c2c(OC)c1OC)OCO4	> 100	> 100	> 100	> 100	> 100	> 100	> 100	> 100
Cc1nc2sccn2c1C(=O)NN	> 100	> 100	> 100	> 100	> 100	> 100	> 100	> 100
O=C(C(=O)c1cc2ccccc2[nH]1)c1cc2ccccc2[nH]1	> 347	> 347	> 347	> 347	> 347	> 347	> 347	> 347
NCCSSCc1ccccc1CSSCCN	> 100	> 100	> 100	> 100	> 100	> 100	> 100	> 100
NC(=O)NNC(=O)CCn1[nH]c(=O)c(Cl)c(Cl)c1=O	> 100	> 100	> 100	> 100	> 100	> 100	> 100	> 100
C=CSCCC(N)C(=O)O (configuration not stated)	> 100	> 100	> 100	> 100	> 100	> 100	> 100	
COC1CCC(OS(C)(=O)=O)C(CO)O1 (configuration not stated)	> 100		> 100	> 100	> 100	> 100		> 100
CC(=O)Nc1ccc(/C=C/C(=O)c2sc(-c3cccnc3)nc2C)cc1	> 100	> 100	> 100	> 100	> 100	> 100		> 100
